# Source: patent US10568320B2, “Biologically-based control methods for insect pests” (The United States of America, as represented by the …, priority 2017, dated 2020)
# Entries after “also recorded” stand apart in the source; their conditions may differ.
# Legend:
# [1] = test system: female alates and workers; assay: Feeding of queenless colony sub-units with immature female alates; assay type: in vivo, Solenopsis invicta
# Description: In this example, whether feeding tyramine and/or the tyramides to colony sub-units that contained female […] would result in inappropriate wing loss, as well as ovariole development. Wing muscle histolysis, and queen pheromone production normally accompanies wing loss (see Vargo, E. L. (1998), Primer pheromones in ants, pp. 293-313. In […]. Breed, […] and M. L. Winston (eds.), Pheromone communication in social insects ants, wasps, bees, and termites. […], Boulder, Colo.). […] The data supports and confirms that workers are feeding the treatments to the female […], which in turn stimulates wing loss in the […]. FIG. 11B is from the same experiment confirming the worker mortality effects of the tyramine and tyramide treatments.
# female sexuals (alates) = assay: Worker attraction to poison sac extracts of dealates (queen pheromone bioassay); assay type: in vivo, Solenopsis invicta; settings: extracts from dealates of fed sub-colonies
# [2] = test system: mature female alates (MFAs); assay: Injection into MFA abdomen: wing loss (dealation); assay type: in vivo, Solenopsis invicta; settings: 100 nL of a 1.0% saline solution injected into the MFA abdomen
# Description: While the MFAs are in their mother colony, the queen releases primer pheromones that inhibit wing loss (sometimes referred to herein as “dealation”), development of ovaries, wing muscle histolysis, and pheromone production. This release prevents reproductive/resource competition between the MFAs and the mother queen. If MFAs are removed from the colony, they become disinhibited and eventually (e.g., within days) lose their wings and start the physiological processes (e.g., wing loss and ovariole development). MFA also become disinhibited when they leave the colony on a mating flight; however, in this case the now NMQs lose their wings within minutes of landing and initiate the above mentioned physiological/biochemical changes (e.g., wing loss and ovariole development). We know from previous experiments that mating is the trigger, not mating flight initiation or the act of flying (Burns, S. N., et al. (2002) Identification and action of juvenile hormone III from sexually mature alate females of the red imported fire ant, Solenopsis invicta. Journal of Insect Physiology 48: 357-365; Burns, S. N., et al. (2005), The effect of age and social environment on dealation in Solenopsis invicta (Hymenoptera: Formicidae) female […]. […] Burns, S. N., et al. […]
# fire ant workers [3] = assay: Species specificity droplet feeding: fire ant workers; assay type: in vivo, Solenopsis invicta; settings: 1% in 10% sucrose, 24 h
# Description: (§1) To evaluate the effect of tyramine on another pest ant species triplicate groups of 20 Tawny crazy ant (Nylanderia fulva) workers and triplicate groups of 20 fire ant workers were setup. Corresponding controls for both pest ant species were workers fed 10% sucrose solution. The treatment was 1% tyramine in 10% sucrose (weight-to-volume). The control and treatments were presented to the worker ants as droplets on phase separation filter paper. Consumption of the droplets was readily observed. Mortality was monitored for each of the first 10 hours and then at 24 hours. The results are shown as mean±standard error of accumulated mortality for controls and treatments at 24 h in FIG. 13. […] These unexpected results illustrate that the toxicity effects of tyramine on fire ants are not automatically extended to other ant species.
# fire ant workers [4] = assay: Example 14 feeding experiments: fire ant worker mortality
# [5] = test system: monogyne queenright colonies; assay: Feeding of monogyne queenright colonies: worker and queen mortality; assay type: in vivo, Solenopsis invicta; settings: 1% in 10% sucrose, 27 d
# Description: FIGS. 24A and 24B show results for the sucrose (10%) control and two treatments, tyramine (1%) and N-methyl-tyramine (1%), both dissolved in 10% sucrose. The control and test colonies were monogyne queenright colonies, containing a single queen, brood and workers started in the laboratory from newly mated queens collected in the field. The mean number of workers per colony was 8,400±400. […] Previous experiments used queenless sub-colonies, rather than the queenright colonies in these experiments. The mortality effect on colony queens was unexpected, since worker fire ants are completely sterile and cannot reproduce even if the queen dies. Therefore, when the reproductive queen dies no more brood is produced and the colony is no longer functional—it is considered dead. […] Therefore, 80% of the treated colonies were considered dead.
# fire ant workers [6] = assay: Droplet feeding of worker groups: mortality over 24 h and concentration series; assay type: in vivo
# Experimental: To determine how quickly the tyramine and acetyl tyramide act, 60 workers were allowed to feed on tyramine (FIG. 8A) or acetyl tyramide (FIG. 8B) dissolved at about 1% in 10% sucrose solution. The control and treatments were presented to the worker ants as droplets on phase separation filter paper. Consumption of the droplets was readily observed. Mortality was monitored for each of the first 10 hours and then at 24 hours. […] Tyramine and acetyl tyramide had >50% and >40% mortality, respectively within the 24 h time period of the experiment. […] This distribution is a cornerstone of pest ant baits. To test this hypothesis, a similar experiment was conducted. Workers were allowed to feed on the treatment and control solutions and were then transferred to another container with unfed nestmates. In all cases, it was observed that the treatment fed workers regurgitated the treatment and sucrose solutions to their unfed nestmates through the classic mechanism of trophallaxis (data not shown). Thus, normal worker behavior necessary for bait development was not affected by the treatments under these experimental conditions.
# One criteria for an effective pest ant Active Ingredient (AI) is maintenance of activity over 1-3 orders of magnitude, because as the bait is distributed from one ant to another the material is diluted. The AI must maintain activity until all individuals in the colony (e.g., workers, brood and sexuals including the queen) have received the AI. […] Journal of Economic Entomology 99(5): 1739-1748). The 0.01% had >24 h delay in mortality.
# fire ant workers [7] = assay: Five biogenic amines fed to fire ant workers as droplets; assay type: in vivo, Solenopsis invicta; settings: 1% in 10% sucrose, 48 h
# Experimental: Tyramine is one of five biogenic amines that may be found in insects (e.g., dopamine, histamine, octopamine, serotonin, and tyramine). The experiment in this example tests whether fire ant worker mortality effects observed with tyramine may be a general result of the ants ingesting greater than normal amounts of a biogenic amine. To test this hypothesis groups of 20 fire ant worker ants were starved for 24 hours and fed a 1% (w/v) biogenic amine in 10% sucrose solution. Treatments and sucrose were presented to the worker ants as a 25 microliter droplet on a 2 cm^2 piece of silicon treated filter paper. Each treatment and control were performed in triplicate for a total of 60 worker ants per treatment and control. Mortality was monitored for the first 7-8 h after introduction of the sucrose solutions, then at 24 h. The feeding/monitoring sequence was repeated for another 24 h period for a total of 48 h. The results are shown in FIG. 12A-12B in the form of Kaplan-Meier mortality curves.
# [8] = test system: Tawny crazy ant (Nylanderia fulva) workers; assay: Species specificity droplet feeding: tawny crazy ant workers; assay type: in vivo; settings: 1% in 10% sucrose, 24 h
# Description: as §1
# [9] = test system: mature female alates (MFAs); assay: Injection into MFA abdomen: ovariole development and egg-laying; assay type: in vivo, Solenopsis invicta; settings: 100 nL of a 1.0% saline solution (1 microgram) injected
# Description: Two measures of ovariole development were used. […] Measurement of ovariole area in the same samples gave a quantitative measure of ovariole development. […] Within the context of a colony this effect would be in direct conflict with the colony queen. Eggs laid would not be fertile and therefore develop into males. Queen pheromone is also produced by […], which would act to reduce the fecundity of the colony queen. For example, in polygyne colonies the higher the number of queens the lower is the mean egg-laying rate/queen due to the presence of excess queen pheromone (see Vander Meer, R. K., et al. (1992), A comparison of queen oviposition rates from monogyne and polygyne fire ant, Solenopsis invicta, colonies.
# 4th instar sexual larvae = assay: Direct (hand) feeding of 4th instar sexual larvae; assay type: in vivo, Solenopsis invicta
# Description: It was concluded that the 4th instar larvae are refractory to the mortality effects observed when workers are fed tyramine.
# [10] = Solubility in aqueous solution; assay type: physicochemical
structure (smiles),measurement,setting,value
NCCc1ccc(O)cc1 [tyramine],wing loss of female alates,"[1]; fed in 10% sucrose continuously for 7 days, via workers",rapid wing loss
same,ovariole development of female alates fed by workers,[1]; sub-colonies,commencement of ovariole development
same,"worker attraction to poison sac extracts versus N,N-dimethyl tyramine treatment and controls",female sexuals (alates),"significantly different from those from the N,N-dimethyl tyramine treatment and the sucrose and hexane controls"
same,dealation (wing loss) compared to the control,[2],significantly faster and inappropriate dealation
same,accumulated worker mortality compared to sucrose control,fire ant workers [3],significant mortality compared to its sucrose control
same,fire ant worker mortality versus 10% sucrose control,fire ant workers [4]; 0.01% in 10% sucrose,significantly different from the 10% sucrose control
same,fire ant worker mortality versus 10% sucrose control,fire ant workers [4]; 0.1% in 10% sucrose,significantly different from the 10% sucrose control
same,fire ant worker mortality versus 10% sucrose control,fire ant workers [4]; 1.0% in 10% sucrose,significantly different from the 10% sucrose control
same,concentration of solution fed to workers that led to mortality after 7 days,fire ant workers [4]; estimated from feeding studies,0.01 micrograms per microliter
same,% worker mortality at the end of the experiment versus control,[5],significantly different from the corresponding controls
same,fate of colony queens (five replicates),[5],one colony queen survived out of five
same,queen mortality at the end of the experiment versus control,[5],significantly different from the corresponding controls
same,colonies considered dead,[5]; five colonies,80%
same,delay in mortality,fire ant workers [6]; 0.01% concentration,> 24 h
same,mortality delay,fire ant workers [6]; 0.1% concentration,≥ 5 h
same,mortality delay,fire ant workers [6]; 1.0% concentration,≥ 5 h
same,worker mortality at a dilution factor of 100,fire ant workers [6]; about 0.01% (weight-to-volume),significant worker mortality
same,"worker mortality compared with sucrose control (Kaplan-Meier, Log-rank)","fire ant workers [6]; about 1% in 10% sucrose, 24 h",significantly greater worker mortality than the sucrose control
same,worker mortality within the 24 h time period,fire ant workers [6]; in vivo,> 50%
same,"worker mortality, tyramine HCl versus tyramine free base",fire ant workers [7],not significantly different
same,accumulated worker mortality compared to sucrose control,[8],did not have significant mortality compared to its sucrose control; also recorded: no effect on crazy ant workers
same,"ovariole development, ovariole area, compared to controls",[9],caused significant ovariole development
same,"ovariole development, ovary rank 1-4, compared to the control",[9],significant ovariole development
same,mortality / sickness of 4th instar sexual larvae,"4th instar sexual larvae; fed once, 80 nL max of about 1% w/v in 10% sucrose, N=10",All sexual larvae fed tyramine died by day 5
same,amount fed at which fire ant sexual larvae die,4th instar sexual larvae; in vivo,0.8 micrograms
same,water solubility,[10],water soluble
same,solubility maximum,[10]; solution,1%
